From patent US20050239656A1, “Pyridine compounds or salts thereof and herbicides containing the same” (priority 2002, published 2005)

Tests used:
[1] = tested on: corn; experiment: Test Example 1: foliage treatment, upland pot test; type: in vivo, Zea mays L.; settings: crop, active ingredient 500 g/ha, observed 18th to 23rd day, 0 = non-treated, 100 = complete kill
Description: (§1) Upland field soil was put into a 1/170,000 ha pot, and seed of various plants were sown. Then, when the plants reached predetermined leaf stages ((1) barnyardgrass: 1.3 to 2.8 leaf stages, (2) crabgrass: 1.0 to 2.8 leaf stages, (3) green foxtail: 1.3 to 2.6 leaf stages, (4) redroot pigweed: 0.1 to 1.2 leaf stages, (5) prickly sida: 0.1 to 1.2 leaf stages, (6) velvetleaf: 0.1 to 1.2 leaf stages, (7) tall morningglory: 0.1 to 1.5 leaf stages, (8) rice: 1.2 to 2.6 leaf stages, (9) wheat: 1.3 to 2.4 leaf stages, (10) corn, 2.1 to 3.2 leaf stages, (11) soybean: 0.1 to 0.4 leaf stage), a wettable powder or emulsifiable concentrate having the compound of the present invention formulated in accordance with a usual formulation method, was weighed so that the active ingredient would be a predetermined amount, and diluted with water in an amount of 500 L/ha. To the diluted solution, 0.1% (v/v) of agricultural spreader was added. The herbicide thus adjusted was applied by a small size sprayer for foliage treatment. On the 18th to 23rd days after the application of the herbicide, the growth of the respective plants was visually observed, and the herbicidal effects were evaluated by the growth controlling degrees (%) ranging from 0 (equivalent to the non-treated plot) to 100 (complete kill), whereby the results shown in Table 3, were obtained.

[2] = tested on: velvetleaf; experiment: Test Example 2: soil surface treatment, upland pot test; type: in vivo, Abutilon theophrasti MEDIC.; settings: active ingredient 500 g/ha, observed 20th to 28th day
In short: (§2)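 Soil surface treated 1 day post-sowing. Formulation: WP or EC, predetermined a.i., diluted to 1,500 L/ha. Pot size 1/170,000 ha, upland soil. Readout: visual % control, 0 = non-treated, 100 = dead, days 20–28.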

[3] = tested on: green foxtail; experiment: Test Example 1: foliage treatment, upland pot test; type: in vivo, Setaria viridis L.; settings: active ingredient 500 g/ha, observed 18th to 23rd day, 0 = non-treated, 100 = complete kill
Description: as §1

[4] = tested on: prickly sida; experiment: Test Example 1: foliage treatment, upland pot test; type: in vivo, Sida spinosa L.; settings: active ingredient 500 g/ha, observed 18th to 23rd day, 0 = non-treated, 100 = complete kill
Description: as §1

[5] = tested on: rice; experiment: Test Example 1: foliage treatment, upland pot test; type: in vivo, Oryza sativa L.; settings: crop, active ingredient 500 g/ha, observed 18th to 23rd day, 0 = non-treated, 100 = complete kill
Description: as §1

[6] = tested on: japanese ribbon wapato; experiment: Test Example 3: paddy pot test, application under submerged conditions; type: in vivo, Sagittaria pygniaea; settings: submerged application at primary leaf stage, visually observed 14 days after application, 0 = non-treated, 100 = complete kill
In short: (§3)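 Barnyardgrass and japanese bulrush sown in flooded paddy soil in greenhouse pots, japanese ribbon wapato tubers planted 1–2 days later; water depth kept at 3–4 cm. Diluted wettable powder or emulsifiable concentrate applied into water at 0.5-leaf or primary-leaf stage at set active-ingredient doses. Growth control scored visually at 14 days, 0 (untreated) to 100% (complete kill).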

[7] = tested on: prickly sida; experiment: Test Example 2: soil surface treatment, upland pot test; type: in vivo, Sida spinosa L.; settings: active ingredient 500 g/ha, observed 20th to 28th day
In short: as §2

[8] = tested on: barnyardgrass; experiment: Test Example 3: paddy pot test, application under submerged conditions; type: in vivo, Echinochloa crus-galli L.; settings: submerged application at 0.5 leaf stage, visually observed 14 days after application, 0 = non-treated, 100 = complete kill
In short: as §3

[9] = tested on: crabgrass; experiment: Test Example 1: foliage treatment, upland pot test; type: in vivo, Digitaria sanguinalis L.; settings: active ingredient 500 g/ha, observed 18th to 23rd day, 0 = non-treated, 100 = complete kill
Description: as §1

[10] = tested on: japanese bulrush; experiment: Test Example 3: paddy pot test, application under submerged conditions; type: in vivo, Scirpus juncoides; settings: submerged application at 0.5 leaf stage, visually observed 14 days after application, 0 = non-treated, 100 = complete kill
In short: as §3

[11] = tested on: corn; experiment: Test Example 2: soil surface treatment, upland pot test; type: in vivo, Zea mays L.; settings: active ingredient 500 g/ha, observed 20th to 28th day
In short: as §2

[12] = tested on: barnyardgrass; experiment: Test Example 1: foliage treatment, upland pot test; type: in vivo, Echinochloa crus-galli L.; settings: active ingredient 500 g/ha, observed 18th to 23rd day, 0 = non-treated, 100 = complete kill
Description: as §1

[13] = tested on: green foxtail; experiment: Test Example 2: soil surface treatment, upland pot test; type: in vivo, Setaria viridis L.; settings: active ingredient 500 g/ha, observed 20th to 28th day
In short: as §2

[14] = tested on: redroot pigweed; experiment: Test Example 1: foliage treatment, upland pot test; type: in vivo, Amaranthus retroflexus L.; settings: active ingredient 500 g/ha, observed 18th to 23rd day, 0 = non-treated, 100 = complete kill
Description: as §1

[15] = tested on: rice; experiment: Test Example 2: soil surface treatment, upland pot test; type: in vivo, Oryza sativa L.; settings: active ingredient 500 g/ha, observed 20th to 28th day
In short: as §2

[16] = tested on: rice (var. Nihonbare); experiment: Test Example 3: paddy pot test, transplanted rice; type: in vivo, Oryza sativa L.; settings: applied 4th day after transplantation, visually observed 21st day after application, 0 = non-treated, 100 = complete kill
In short: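 Rice (var. Nihonbare) at 2 leaf stage transplanted 3 cm deep into puddled paddy soil under 3–4 cm flooding; on day 4 after transplanting, diluted wettable powder or emulsifiable concentrate applied by pipette under submerged conditions at a set active-ingredient dose. Growth scored visually 21 days after application, 0 (untreated) to 100 (complete kill) %.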

[17] = tested on: barnyardgrass; experiment: Test Example 2: soil surface treatment, upland pot test; type: in vivo, Echinochloa crus-galli L.; settings: active ingredient 500 g/ha, observed 20th to 28th day
In short: as §2

[18] = tested on: crabgrass; experiment: as above; type: in vivo, Digitaria sanguinalis L.; settings: active ingredient 500 g/ha, observed 20th to 28th day
In short: as §2

[19] = tested on: redroot pigweed; experiment: as above; type: in vivo, Amaranthus retroflexus L.; settings: active ingredient 500 g/ha, observed 20th to 28th day
In short: as §2

[20] = tested on: soybean; experiment: as above; type: in vivo, Glycine max Merr.; settings: active ingredient 500 g/ha, observed 20th to 28th day
In short: as §2

[21] = tested on: soybean; experiment: Test Example 1: foliage treatment, upland pot test; type: in vivo, Glycine max Merr.; settings: crop, active ingredient 500 g/ha, observed 18th to 23rd day, 0 = non-treated, 100 = complete kill
Description: as §1

[22] = tested on: velvetleaf; experiment: Test Example 1: foliage treatment, upland pot test; type: in vivo, Abutilon theophrasti MEDIC.; settings: active ingredient 500 g/ha, observed 18th to 23rd day, 0 = non-treated, 100 = complete kill
Description: as §1

CC(C)C(c1cnccc1C(F)(F)F)N(C)C(=O)Cc1ccccc1[N+](=O)[O-] (stereo not shown) [I-39]
Growth controlling degree (%) Corn [1]: 10%
Growth controlling degree (%) Velvetleaf [2]: 30%
Growth controlling degree (%) Green foxtail [3]: 60%
Growth controlling degree (%) Prickly sida [4]: 90%
Growth controlling degree (%) Rice [5]: 10%
Growth controlling degree (%) Japanese ribbon wapato ([6]; active ingredient 250 g/ha): 85%
Growth controlling degree (%) Prickly sida [7]: 90%
Growth controlling degree (%) Barnyardgrass ([8]; active ingredient 250 g/ha): 100%
Growth controlling degree (%) Crabgrass [9]: 70%
Growth controlling degree (%) Japanese bulrush ([10]; active ingredient 250 g/ha): 95%
Growth controlling degree (%) Corn [11]: 40%
Growth controlling degree (%) Barnyardgrass [12]: 50%
Growth controlling degree (%) Green foxtail [13]: 70%
Growth controlling degree (%) Redroot pigweed [14]: 80%
Growth controlling degree (%) Rice [15]: 10%
Growth controlling degree (%) Rice ([16]; active ingredient 250 g/ha): 10%
Growth controlling degree (%) Barnyardgrass [17]: 100%
Growth controlling degree (%) Crabgrass [18]: 100%
Growth controlling degree (%) Redroot pigweed [19]: 80%
Growth controlling degree (%) Soyabean [20]: 50%
Growth controlling degree (%) Soybean [21]: 40%

CC(C)C(c1cnccc1Cl)N(C)C(=O)Cc1cccc(F)c1F (stereo not shown) [I-72]
Growth controlling degree (%) Corn [1]: 40%
Growth controlling degree (%) Velvetleaf [2]: 0%
Growth controlling degree (%) Green foxtail [3]: 10%
Growth controlling degree (%) Prickly sida [4]: 60%
Growth controlling degree (%) Japanese ribbon wapato ([6]; active ingredient 125 g/ha): 50%
Growth controlling degree (%) Velvetleaf [22]: 85%
Growth controlling degree (%) Barnyardgrass ([8]; active ingredient 125 g/ha): 90%
Growth controlling degree (%) Crabgrass [9]: 70%
Growth controlling degree (%) Japanese bulrush ([10]; active ingredient 125 g/ha): 70%
Growth controlling degree (%) Corn [11]: 0%
Growth controlling degree (%) Barnyardgrass [12]: 0%
Growth controlling degree (%) Green foxtail [13]: 60%
Growth controlling degree (%) Redroot pigweed [14]: 60%
Growth controlling degree (%) Rice [15]: 0%
Growth controlling degree (%) Rice ([16]; active ingredient 125 g/ha): 0%
Growth controlling degree (%) Barnyardgrass [17]: 80%
Growth controlling degree (%) Crabgrass [18]: 70%
Growth controlling degree (%) Soyabean [20]: 0%
Growth controlling degree (%) Soybean [21]: 20%

CC(Oc1ccccc1)C(=O)N(C)C(c1cnccc1C(F)(F)F)C(C)C (stereo not shown) [I-119, N-methyl-N-[2-methyl-1-(4-trifluoromethylpyridin-3-yl)propyl]2-phenoxypropionamide]
Growth controlling degree (%) Corn [1]: 10%
Growth controlling degree (%) Green foxtail [3]: 50%
Growth controlling degree (%) Prickly sida [4]: 70%
Growth controlling degree (%) Rice [5]: 20%
Growth controlling degree (%) Velvetleaf [22]: 10%
Growth controlling degree (%) Barnyardgrass ([8]; active ingredient 500 g/ha): 98%
Growth controlling degree (%) Crabgrass [9]: 40%
Growth controlling degree (%) Japanese bulrush ([10]; active ingredient 500 g/ha): 100%
Growth controlling degree (%) Barnyardgrass [12]: 60%
Growth controlling degree (%) Redroot pigweed [14]: 50%
Growth controlling degree (%) Rice ([16]; active ingredient 500 g/ha): 20%
Growth controlling degree (%) Soybean [21]: 60%

CC(C)C(c1cnccc1C(F)(F)F)N(C)C(=O)CC1CCCCC1 (stereo not shown) [I-164]
Growth controlling degree (%) Corn [1]: 50%
Growth controlling degree (%) Velvetleaf [2]: 40%
Growth controlling degree (%) Green foxtail [3]: 60%
Growth controlling degree (%) Prickly sida [4]: 80%
Growth controlling degree (%) Rice [5]: 50%
Growth controlling degree (%) Japanese ribbon wapato ([6]; active ingredient 250 g/ha): 0%
Growth controlling degree (%) Velvetleaf [22]: 85%
Growth controlling degree (%) Prickly sida [7]: 60%
Growth controlling degree (%) Barnyardgrass ([8]; active ingredient 250 g/ha): 100%
Growth controlling degree (%) Crabgrass [9]: 60%
Growth controlling degree (%) Japanese bulrush ([10]; active ingredient 250 g/ha): 98%
Growth controlling degree (%) Corn [11]: 20%
Growth controlling degree (%) Barnyardgrass [12]: 60%
Growth controlling degree (%) Green foxtail [13]: 85%
Growth controlling degree (%) Rice [15]: 60%
Growth controlling degree (%) Rice ([16]; active ingredient 250 g/ha): 10%
Growth controlling degree (%) Barnyardgrass [17]: 70%
Growth controlling degree (%) Crabgrass [18]: 98%
Growth controlling degree (%) Redroot pigweed [19]: 70%
Growth controlling degree (%) Soyabean [20]: 20%
Growth controlling degree (%) Soybean [21]: 30%

CC(C)C(c1cnccc1C(F)(F)F)N(C)C(=O)COc1ccc(F)cc1 (stereo not shown) [I-241]
Growth controlling degree (%) Corn [1]: 30%
Growth controlling degree (%) Velvetleaf [2]: 70%
Growth controlling degree (%) Green foxtail [3]: 70%
Growth controlling degree (%) Prickly sida [4]: 80%
Growth controlling degree (%) Rice [5]: 20%
Growth controlling degree (%) Japanese ribbon wapato ([6]; active ingredient 250 g/ha): 80%
Growth controlling degree (%) Velvetleaf [22]: 80%
Growth controlling degree (%) Prickly sida [7]: 100%
Growth controlling degree (%) Barnyardgrass ([8]; active ingredient 250 g/ha): 100%
Growth controlling degree (%) Crabgrass [9]: 95%
Growth controlling degree (%) Japanese bulrush ([10]; active ingredient 250 g/ha): 95%
Growth controlling degree (%) Corn [11]: 40%
Growth controlling degree (%) Barnyardgrass [12]: 70%
Growth controlling degree (%) Green foxtail [13]: 100%
Growth controlling degree (%) Rice [15]: 20%
Growth controlling degree (%) Rice ([16]; active ingredient 250 g/ha): 0%
Growth controlling degree (%) Barnyardgrass [17]: 100%
Growth controlling degree (%) Crabgrass [18]: 98%
Growth controlling degree (%) Redroot pigweed [19]: 90%
Growth controlling degree (%) Soyabean [20]: 20%
Growth controlling degree (%) Soybean [21]: 80%
